The values below come from ChEMBL document CHEMBL1201862, “PubChem BioAssay data set” (2004).

Activity calls are given as the source filed them.

One experiment has as its target T1, Protein RecA (Mycobacterium tuberculosis, UniProt P9WHJ3).
T1 sequence (P9WHJ3 whole entry): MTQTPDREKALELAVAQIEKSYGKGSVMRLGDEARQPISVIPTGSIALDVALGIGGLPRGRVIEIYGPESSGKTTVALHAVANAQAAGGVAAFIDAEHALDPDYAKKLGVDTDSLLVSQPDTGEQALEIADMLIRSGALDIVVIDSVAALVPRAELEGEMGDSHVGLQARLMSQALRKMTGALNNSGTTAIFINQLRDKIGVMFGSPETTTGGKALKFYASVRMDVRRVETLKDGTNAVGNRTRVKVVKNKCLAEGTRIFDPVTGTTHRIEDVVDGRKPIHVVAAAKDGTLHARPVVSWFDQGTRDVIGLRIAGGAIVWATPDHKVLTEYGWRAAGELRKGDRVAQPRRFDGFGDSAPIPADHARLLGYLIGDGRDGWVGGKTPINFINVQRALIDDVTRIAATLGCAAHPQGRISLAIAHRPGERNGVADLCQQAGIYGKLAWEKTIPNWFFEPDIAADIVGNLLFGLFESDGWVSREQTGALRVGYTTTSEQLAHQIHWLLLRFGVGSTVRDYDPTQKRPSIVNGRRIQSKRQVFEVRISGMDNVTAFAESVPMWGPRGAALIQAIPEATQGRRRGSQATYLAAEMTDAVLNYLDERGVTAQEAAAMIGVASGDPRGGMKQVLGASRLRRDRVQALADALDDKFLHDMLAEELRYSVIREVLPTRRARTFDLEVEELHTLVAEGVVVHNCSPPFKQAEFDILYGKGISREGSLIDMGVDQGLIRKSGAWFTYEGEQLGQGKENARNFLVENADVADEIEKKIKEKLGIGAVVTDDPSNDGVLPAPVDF
Kind of experiment: Fluorescence Cell-Free Homogeneous Dose Retest to Identify Inhibitors of RecA-Intein Splicing Activity. [Related pubchem assays (depositor defined):AID2097, AID2223, AID489010, AID492950]. The format is functional.

The nature of experiment [1]: MC4R antagonists, dose response, counter-screen for LGR2 antagonist project, cell-based, plate reader, cherry pick (AID 743444).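 Further: transfected HEK 293 cells stimulated with alpha-MSH peptide; potency of inhibitors of the alpha-MSH evoked signal.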 Format: functional.
The nature of experiment [2]: cytotoxicity toward Colo320 cells – cell-based, CellTiter-Glo luminescence, IC50, dose response (AID 1117334). The format is functional. The following applies: COLO 320.
The target in experiment [3] is Heat shock protein HSP 90-alpha (Homo sapiens, UniProt P07900). Format: functional, organism-based.
Experiment [4] in a line: RKO cell viability reduction, dose response, CellTiter-Glo luminescence (AID 1117322). The format is functional.
Experiment [5] in a line: C. albicans growth with fluconazole, confirmation, fluorescence, retest (AID 2467). Format: functional, cell-based.
Experiment [6] in a line: HepG2 cell cytotoxicity, dose response, cytotoxicity control, plate reader, cherry-pick, antagonist series (AID 743416). Format: functional, cell-based.
The test system of experiment [7] is BJ. Kind of experiment: cells. Format: functional, cell-based. The note with it: Homo sapiens.
In experiment [8] the target is Photoreceptor-specific nuclear receptor (Homo sapiens, UniProt Q9Y5X4). The format is functional, cell-based.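 Further: CHO-S cells with Gal4-NCOR and VP16-NR2E3 two-hybrid luciferase reporter.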
Sequence of Photoreceptor-specific nuclear receptor (Q9Y5X4 whole entry, the tested form may be a part): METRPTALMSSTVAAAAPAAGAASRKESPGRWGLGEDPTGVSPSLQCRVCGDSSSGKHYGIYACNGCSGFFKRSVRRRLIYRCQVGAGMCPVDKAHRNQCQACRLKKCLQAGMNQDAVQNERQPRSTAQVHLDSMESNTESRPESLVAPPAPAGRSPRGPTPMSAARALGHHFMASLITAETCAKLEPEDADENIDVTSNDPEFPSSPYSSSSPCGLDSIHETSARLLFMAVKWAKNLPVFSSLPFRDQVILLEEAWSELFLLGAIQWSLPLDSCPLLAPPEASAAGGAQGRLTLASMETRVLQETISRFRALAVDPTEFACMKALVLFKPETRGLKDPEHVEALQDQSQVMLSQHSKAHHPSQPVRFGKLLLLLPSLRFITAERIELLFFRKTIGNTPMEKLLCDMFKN
For experiment [9], the system named is BJ. Kind of experiment: cytotoxicity toward BJ-TERT-LT-ST fibroblasts, dose response, cell-based, RAS-independent, luminescence (AID 1935).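 Further: BJ fibroblasts immortalized with TERT plus LT and ST oncogenes.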 The format is functional. The note with it: Homo sapiens.
Experiment [10] concerns the target T2, Replicative DNA helicase DnaB (Mycobacterium tuberculosis, UniProt P9WMR3).
T2 sequence (P9WMR3 whole entry): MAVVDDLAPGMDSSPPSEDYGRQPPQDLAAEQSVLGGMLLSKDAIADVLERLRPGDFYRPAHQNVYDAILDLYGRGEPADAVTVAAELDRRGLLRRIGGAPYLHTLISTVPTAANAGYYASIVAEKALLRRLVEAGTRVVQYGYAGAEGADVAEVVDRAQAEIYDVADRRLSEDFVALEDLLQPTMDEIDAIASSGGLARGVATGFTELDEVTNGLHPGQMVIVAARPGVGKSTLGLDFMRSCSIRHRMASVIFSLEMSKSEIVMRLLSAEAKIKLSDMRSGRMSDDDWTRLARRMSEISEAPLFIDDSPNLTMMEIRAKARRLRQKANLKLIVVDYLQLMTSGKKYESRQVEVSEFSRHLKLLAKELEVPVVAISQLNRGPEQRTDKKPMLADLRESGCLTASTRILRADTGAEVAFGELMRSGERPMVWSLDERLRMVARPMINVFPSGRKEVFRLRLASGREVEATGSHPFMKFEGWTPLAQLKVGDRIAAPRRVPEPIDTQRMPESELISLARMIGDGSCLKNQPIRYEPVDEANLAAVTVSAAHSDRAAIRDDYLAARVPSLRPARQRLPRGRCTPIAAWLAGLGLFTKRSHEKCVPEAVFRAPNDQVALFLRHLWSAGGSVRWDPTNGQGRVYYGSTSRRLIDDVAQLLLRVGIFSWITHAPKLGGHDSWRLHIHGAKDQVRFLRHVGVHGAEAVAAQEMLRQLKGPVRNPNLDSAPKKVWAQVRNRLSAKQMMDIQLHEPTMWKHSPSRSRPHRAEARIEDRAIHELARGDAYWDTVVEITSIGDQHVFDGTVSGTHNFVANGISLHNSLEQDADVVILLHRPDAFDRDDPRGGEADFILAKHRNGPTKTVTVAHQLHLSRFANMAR
Kind of experiment: DnaB intein splicing inhibitors, dose response, biochemical, cell-free fluorescence (AID 449749). Format: functional.

The target in the next experiment is T3, Caspase-6 (Homo sapiens, UniProt P55212).
T3 sequence (P55212 whole entry): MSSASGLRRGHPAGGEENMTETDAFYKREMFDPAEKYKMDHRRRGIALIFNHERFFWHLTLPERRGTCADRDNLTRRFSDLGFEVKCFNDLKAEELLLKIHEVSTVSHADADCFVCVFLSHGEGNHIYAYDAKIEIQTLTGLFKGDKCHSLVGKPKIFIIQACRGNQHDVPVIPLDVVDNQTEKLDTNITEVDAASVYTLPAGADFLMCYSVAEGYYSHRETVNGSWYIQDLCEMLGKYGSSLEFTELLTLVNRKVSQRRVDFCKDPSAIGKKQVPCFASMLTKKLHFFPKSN
Kind of experiment: human caspase-6 inhibitors, dose response, biochemical, VEID-R110 fluorescence, cherry-pick (AID 720632).

The next experiment concerns the target Nonstructural protein 1 (Influenza A virus, UniProt Q194T2). The format is functional, Influenza A virus (A/California/07/2009(H1N1)).
The nature of experiment [11]: NIH-3T3 fibroblast cytotoxicity, dose response, cytotoxicity control, cell-based, fluorescence, Alamar Blue, secondary assay (AID 2327).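 Further: NIH-3T3 mouse fibroblasts cultured with fluconazole at 8 µg/mL.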 Format: functional.
Experiment [12] in a line: SNU-C1 cell viability reduction, dose response, CellTiter-Glo luminescence (AID 1117323). Format: functional, cell-based.
Experiment [13] can be described thus: A549 cell cytotoxicity, dose response, cytotoxicity control, plate reader, cherry-pick, antagonist series (AID 743412). The format is functional, cell-based.
Experiment [14] is described as follows: HeLa 2N DNA content increase, dose response, cell-based, IC50 (AID 1117349). The format is functional.
Experiment [15] in a line: HeLa 4N DNA content increase, dose response, cell-based, IC50 (AID 1117351). The format is functional.
Experiment [16] is described as follows: CellTiter-Glo luminescent dose response of DLD-1 viability loss (AID 1117352). Format: functional.
The nature of experiment [17]: LGR2 antagonists, dose response, cell-based, HEK293, CRE-luciferase reporter, cherry pick, set 2 (AID 743343).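 Further: transfected cells were stimulated with diluted bursicon conditioned medium after compound addition.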 The format is functional.
The nature of experiment [18]: cytotoxicity toward DRD oncogenic fibroblasts, dose response, cell-based, non-viral oncogenic, luminescence (AID 1934). The format is functional. The following applies: Homo sapiens.
Experiment [19] can be described thus: HEK293 cell cytotoxicity, dose response, cytotoxicity control, plate reader, cherry-picked samples (AID 743446). Format: functional, cell-based.
The nature of experiment [20]: Concentration-dependent survival of SW480 colon cancer line, luminescence detection with CellTiter-Glo, half-maximal inhibitory concentration (AID 1117338). Format: functional.
Experiment [21] can be described thus: HCT116 cell viability decrease, GSK3B pretreatment – CellTiter-Glo, IC50, dose response (AID 1117339). Format: functional. The following applies: HCT-116.
The subject of experiment [22] is BJ. Kind of experiment: cytotoxicity toward BJ-TERT fibroblasts, dose response, cell-based, RAS-independent, luminescence (AID 1933). The format is functional. The note with it: Homo sapiens.
A short description of experiment [23]: THP-1 cell cytotoxicity, dose response, cytotoxicity control for Vif-APOBEC3G degradation inhibitor project, THP-1 cells (AID 1117359). The following applies: Human immunodeficiency virus 1, THP-1. The format is functional.
A short description of experiment [24]: cytotoxicity toward HT-29 cells – cell-based, CellTiter-Glo luminescence, IC50, dose response (AID 1117330). The format is functional.
The nature of experiment [25]: cytotoxicity toward HCT116 cells – cell-based, CellTiter-Glo luminescence, IC50, dose response (AID 1117332). The format is functional. The note with it: HCT-116.
Experiment [26] addresses T4, Fatty acid synthase (Homo sapiens, UniProt P49327). Kind of experiment: FAS thioesterase domain inhibitors, dose response, biochemical, endpoint fluorescence intensity, uHTS hits (AID 624327).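 Further: fluorescence from hydrolysis of an O-methyl fluorescein acyl ester substrate by the enzyme.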 The format is functional.
Experiment [27] in a line: Fluorescence-based cell-based high throughput dose response assay for inhibitors of the interaction of nucleotide-binding oligomerization domain containing 2 (NOD2) and the receptor-interacting serine-threonine kinase 2 (RIPK2). The note with it: Homo sapiens. Format: functional.
For experiment [28], the target named is T4, Fatty acid synthase. Kind of experiment: FAS thioesterase domain inhibitors, dose response, biochemical, kinetic fluorescence intensity (AID 624326).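 Further: rate of fluorescence rise from hydrolysis of a fluorogenic O-methyl fluorescein ester substrate.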 The format is functional.
The next experiment deals with Beta Lactamase (Pseudomonas aeruginosa, UniProt Q932Y6). Kind of experiment: beta-lactamase reporter inhibitor potency, dose response, artefact control for NOD2-RIPK2 interaction inhibitor project, BLA reporter cells, FRET fluorescence (AID 651552). Format: functional, cell-based.
Sequence of Beta Lactamase (Q932Y6 whole entry): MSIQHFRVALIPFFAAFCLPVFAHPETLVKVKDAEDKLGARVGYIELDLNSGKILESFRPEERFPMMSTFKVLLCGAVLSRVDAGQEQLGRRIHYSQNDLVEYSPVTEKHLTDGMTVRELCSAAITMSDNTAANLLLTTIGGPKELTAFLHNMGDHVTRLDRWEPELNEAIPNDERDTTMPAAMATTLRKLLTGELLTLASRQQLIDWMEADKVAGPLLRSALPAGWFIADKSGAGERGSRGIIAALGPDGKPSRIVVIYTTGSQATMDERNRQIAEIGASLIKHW

T4 sequence (P49327 whole entry, the tested form may be a part): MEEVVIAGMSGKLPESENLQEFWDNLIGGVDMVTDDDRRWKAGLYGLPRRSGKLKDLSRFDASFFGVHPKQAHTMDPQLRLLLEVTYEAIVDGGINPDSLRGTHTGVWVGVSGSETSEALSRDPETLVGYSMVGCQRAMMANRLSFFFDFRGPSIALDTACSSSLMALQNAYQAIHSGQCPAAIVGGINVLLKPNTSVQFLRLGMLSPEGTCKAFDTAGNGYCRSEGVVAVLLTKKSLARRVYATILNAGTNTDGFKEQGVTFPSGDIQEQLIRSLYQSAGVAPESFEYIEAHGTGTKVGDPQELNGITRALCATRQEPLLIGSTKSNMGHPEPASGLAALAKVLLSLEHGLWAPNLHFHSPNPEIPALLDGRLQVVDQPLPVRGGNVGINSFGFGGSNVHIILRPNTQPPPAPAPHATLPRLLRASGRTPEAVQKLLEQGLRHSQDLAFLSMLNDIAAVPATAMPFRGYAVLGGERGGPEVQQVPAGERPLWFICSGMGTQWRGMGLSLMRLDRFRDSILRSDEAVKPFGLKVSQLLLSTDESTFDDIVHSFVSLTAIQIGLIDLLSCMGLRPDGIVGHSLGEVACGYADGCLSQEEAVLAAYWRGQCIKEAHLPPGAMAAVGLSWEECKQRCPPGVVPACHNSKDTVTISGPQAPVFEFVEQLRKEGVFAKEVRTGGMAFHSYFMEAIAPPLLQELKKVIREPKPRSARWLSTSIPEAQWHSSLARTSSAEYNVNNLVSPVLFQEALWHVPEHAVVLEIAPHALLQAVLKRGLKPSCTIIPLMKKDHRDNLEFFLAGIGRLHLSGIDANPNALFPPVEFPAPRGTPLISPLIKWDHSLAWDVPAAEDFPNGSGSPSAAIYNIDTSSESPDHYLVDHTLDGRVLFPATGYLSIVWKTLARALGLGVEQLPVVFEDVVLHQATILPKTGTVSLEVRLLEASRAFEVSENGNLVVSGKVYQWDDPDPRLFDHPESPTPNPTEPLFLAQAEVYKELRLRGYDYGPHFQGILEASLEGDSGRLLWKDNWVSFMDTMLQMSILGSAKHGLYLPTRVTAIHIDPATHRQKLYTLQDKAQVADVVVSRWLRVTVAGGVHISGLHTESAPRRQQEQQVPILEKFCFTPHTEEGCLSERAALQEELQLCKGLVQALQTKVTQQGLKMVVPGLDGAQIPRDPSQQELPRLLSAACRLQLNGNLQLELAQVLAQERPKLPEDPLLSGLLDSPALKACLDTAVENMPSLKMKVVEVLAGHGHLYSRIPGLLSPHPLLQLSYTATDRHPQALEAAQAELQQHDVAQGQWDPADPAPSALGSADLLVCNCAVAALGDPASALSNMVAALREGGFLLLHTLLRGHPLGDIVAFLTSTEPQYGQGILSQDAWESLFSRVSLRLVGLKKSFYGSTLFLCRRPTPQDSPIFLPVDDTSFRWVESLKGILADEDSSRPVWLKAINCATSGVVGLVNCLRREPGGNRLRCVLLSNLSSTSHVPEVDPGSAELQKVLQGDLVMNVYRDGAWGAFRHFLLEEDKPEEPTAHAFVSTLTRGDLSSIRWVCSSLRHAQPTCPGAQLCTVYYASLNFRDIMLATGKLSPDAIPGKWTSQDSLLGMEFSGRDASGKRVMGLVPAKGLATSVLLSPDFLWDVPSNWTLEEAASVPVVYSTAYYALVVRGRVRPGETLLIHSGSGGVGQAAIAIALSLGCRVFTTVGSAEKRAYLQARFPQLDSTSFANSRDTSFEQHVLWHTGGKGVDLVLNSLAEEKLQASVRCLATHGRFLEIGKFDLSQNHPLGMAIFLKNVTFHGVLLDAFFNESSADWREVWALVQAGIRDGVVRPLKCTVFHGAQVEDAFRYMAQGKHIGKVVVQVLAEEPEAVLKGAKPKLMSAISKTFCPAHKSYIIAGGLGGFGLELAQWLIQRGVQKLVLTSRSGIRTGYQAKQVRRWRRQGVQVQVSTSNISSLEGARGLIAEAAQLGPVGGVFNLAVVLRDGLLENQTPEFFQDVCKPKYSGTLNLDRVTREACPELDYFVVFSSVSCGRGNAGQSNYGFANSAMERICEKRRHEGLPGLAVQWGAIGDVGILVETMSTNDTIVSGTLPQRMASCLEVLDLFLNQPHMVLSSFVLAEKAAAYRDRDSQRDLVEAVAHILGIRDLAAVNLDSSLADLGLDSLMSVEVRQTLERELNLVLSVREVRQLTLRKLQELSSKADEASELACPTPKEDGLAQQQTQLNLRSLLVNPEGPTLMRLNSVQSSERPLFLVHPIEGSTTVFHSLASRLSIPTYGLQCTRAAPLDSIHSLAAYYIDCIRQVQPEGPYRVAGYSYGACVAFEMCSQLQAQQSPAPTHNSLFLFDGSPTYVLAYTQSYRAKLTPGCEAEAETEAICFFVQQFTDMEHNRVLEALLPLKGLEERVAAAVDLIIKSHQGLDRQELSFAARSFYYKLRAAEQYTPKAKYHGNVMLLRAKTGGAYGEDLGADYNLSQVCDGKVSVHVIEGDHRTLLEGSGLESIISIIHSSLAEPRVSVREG
Sequence of Nonstructural protein 1 (Q194T2 whole entry): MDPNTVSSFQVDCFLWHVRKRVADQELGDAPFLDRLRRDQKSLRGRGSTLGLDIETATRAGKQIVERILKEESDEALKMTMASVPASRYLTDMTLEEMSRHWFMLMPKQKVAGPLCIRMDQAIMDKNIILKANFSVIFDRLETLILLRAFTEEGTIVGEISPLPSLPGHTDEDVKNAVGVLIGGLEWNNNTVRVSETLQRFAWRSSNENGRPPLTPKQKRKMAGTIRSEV

With `O=[N+]([O-])c1ccc(O)c2ncccc12` [NITROXOLINE], the EC50 at Protein RecA is 14.4 µM (active); in experiment [5], 0.161 µM (active); with BJ [7], 28.8 µM (active); in the experiment on BJ [9] it was 16.7 µM (inconclusive); in [11] it was 9.52 µM (inconclusive); in experiment [18], 16.6 µM (active). In the experiment with BJ [22], the EC50 is 9.44 µM (active). In addition, the AC50 in experiment [1] was 48.7 µM (active); in [3], 0.996 µM (active); in [6] it was 9.7 µM (active); in experiment [10], 9.95 µM (active); on Caspase-6, 14.9 µM (active); in [13], 12.1 µM (active). For the same molecule, the figures for the AC50 in experiment [17] and in [19] were 54.9 µM (active) and 11.5 µM (active), respectively. Moreover, the IC50 in experiment [2] is 0.684 µM (active); in experiment [4], 0.71 µM (active); in experiment [8], 8.96 µM (active); on Nonstructural protein 1 it was 4.72 µM (active); in [12], > 20 µM (inactive); in experiment [14], 1.7 µM (active). The IC50 in experiment [15] is > 10 µM (inactive); in experiment [16], 1.38 µM (active); in experiment [20], 0.605 µM (active); in [21], 0.375 µM (active); in experiment [24], > 20 µM (inactive); in experiment [25], 0.921 µM (active). Moreover, in experiment [23], the CC50 was 5.53 µM (active).

Take `CCOC(=O)[C@]12Cc3c(cc(OC)c(OC)c3OC)[C@H]1N(C1CCCCC1)C(=O)c1ccccc12`: the IC50 was 8.89 µM (active) at Fatty acid synthase [26], 2.03 µM (active) in experiment [27], 7.77 µM (active) at Fatty acid synthase [28] and 25.5 µM (inactive) at Beta Lactamase.
